Laboratory results taken from patent US20240180883A1, “TREATMENT OF MIGRAINE” (Allergan Pharmaceuticals International Limited, priority 2020, published 2024).

Key:
[1] = cited from earlier work; for liver enzyme levels: clinical trials
Study B: adverse events = details: Treatment B: rifampin 600 mg once daily for 5 days, fasted

O=C(CN1C(=O)C2(CCCC2)NC[C@H]1c1cc(F)cc(F)c1)Nc1ccc2c(c1)C[C@@]1(C2)C(=O)Nc2ncccc21 [MK-3207]
liver enzyme levels [1]: elevated liver enzyme levels were observed

NCCCC[C@H](NC(=O)[C@@H](Cc1cc(Br)c(O)c(Br)c1)NC(=O)N1CCC(N2Cc3ccccc3NC2=O)CC1)C(=O)N1CCN(c2ccncc2)CC1 [olcegepant]
efficacy in the acute treatment of migraine ([1]; IV formulation): efficacious in the acute treatment of migraine
oral bioavailability ([1]; human, in vivo, po): not orally bioavailable

CO[C@H]1/C=C/O[C@@]2(C)Oc3c(C)c(O)c4c(O)c(c(/C=N/N5CCN(C)CC5)c(O)c4c3C2=O)NC(=O)/C(C)=C\C=C\[C@H](C)[C@H](O)[C@@H](C)[C@@H](O)[C@@H](C)[C@H](OC(C)=O)[C@@H]1C [rifampin, reference compound]
AEs leading to discontinuation (Study B: adverse events): 0 n (%)
Any AE (Study B: adverse events): 1 (3.3) n (%)
Deaths (Study B: adverse events): 0 n (%)
Dry Mouth (Study B: adverse events): 0 n (%)
Flatulence (Study B: adverse events): 0 n (%)
Gastrointestinal Disorders (Study B: adverse events): 0 n (%)
Headache (Study B: adverse events): 1 (3.3) n (%)
Nausea (Study B: adverse events): 0 n (%)
Nervous System Disorders (Study B: adverse events): 1 (3.3) n (%)
SAEs (Study B: adverse events): 0 n (%)
TEAEs (Study B: adverse events): 1 (3.3) n (%)
Treatment related TEAEs (Study B: adverse events): 1 (3.3) n (%)

O=C(N[C@@H]1CC[C@@H](c2cccc(F)c2F)CN(CC(F)(F)F)C1=O)N1CCC(n2c(=O)[nH]c3ncccc32)CC1 [telcagepant]
liver enzyme levels [1]: elevated liver enzyme levels were observed
